In experiment [1] the test system is HRV-42,-45,-14,-70,-72 and -86. Kind of experiment: Picornavirus Minimal Inhibitory Concentration Test (cytopathic effect reduction assay), second panel of rhinoviruses. It is filed as cell-based. As to conditions: Human rhinovirus sp., HRV42; medium value of the IC50-values of all serotypes of the second panel; Ohio Hela cells, 3 to 5 days at 33°C; concentration protecting 50% of the cells from cytopathic effects; read-out: Med₂. The procedure: (§1) Example 24: Picornavirus Minimal Inhibitory Concentration Test,
(§2) The Minimal Inhibitory Concentration of the compounds of the present invention against the Human Rhinovirus strains (HRV) -2,-9,-14,-15,-29,-39,-41,-42,-45,-51, -59,-63,-70,-72,-85,-86 and -89 was determined by a standard cytopathic effect reduction assay as follows. To each of the ninety six (96) wells of a microtiter 96 well tissue culture plate there was added 60 µl of an Ohio Hela cell maintenance medium [Eagle's Basal medium supplemented with 5% Foetal Calf Serum (FCS)]. To two wells there was added 60 µl of an appropriate starting dilution of a compound of formula (I) and two-fold dilutions were made to cover a wide range of compound concentrations. Subsequently there were added 120 µl of an infectious solution of virus in Eagle's Basal Medium with 2% Hepes buffer, 2% FCS and 30 mM MgCl₂ to all wells except cell and compound controls. Said infectious virus solution has a TCID₅₀-value (Tissue Culture Infectious Dose) of about 100.
(§3) The TCID₅₀-value is the dose of viruses which initiates a cytopathic effect in 50% of the inoculated cells. 150 µl of the thus obtained virus-compound mixtures were then transferred to microtitre plates with subconfluent Ohio Hela Cells, grown in 100 µl of maintenance medium. Appropriate virus controls, cell controls and compound controls were included in each test. Plates were incubated for 3 to 5 days at 33°C in 5% CO₂ atmosphere. […] The IC₅₀-value for each virus-compound series was taken as the concentration in ng/ml that protected 50% of the cells from cytopathic effects with respect to the untreated controls. In the standard test procedure, the compounds were tested against two panels of rhinoviruses, a first panel consisting of serotypes HRV- 2,-29,-39,-85,-9,-15,-51, -59,-63,-89,-41 and the other panel consisting of HRV-42,-45,-14,-70,-72 and -86.
(§4) The IC₅₀-value for each rhinovirus serotype was determined, and the efficacy of each compound was determined in terms of the Med₁-value and Med₂-value, which is the medium value of the IC₅₀-value of all serotypes from the first and second panel respectively. The following table gives the testing results with the compounds of the invention.

The test system of experiment [2] is HRV- 2,-29,-39,-85,-9,-15,-51, -59,-63,-89,-41. Kind of experiment: Picornavirus Minimal Inhibitory Concentration Test (cytopathic effect reduction assay), first panel of rhinoviruses. Conditions: Human rhinovirus sp., HeLa, read-out: Med₁. Format: cell-based. The procedure: as §1, §2, §3, §4

Structures are written as SMILES. In brackets after ≈: the same amount, converted by molar mass.

Regarding `CCCc1nc(-c2ccc(OCCC3CCN(c4ccc(C)nn4)CC3)cc2)co1` [compound 36], the figures for the IC50 in experiment [1] and in experiment [2] were above 0.125 µg/mL and 7 ng/mL (≈ 0.0172 µM), respectively.

Turning to `CCc1noc(-c2ccc(OCC3CCN(c4ccc(C)nn4)CC3)cc2)n1` [compound 16], the IC50 in experiment [1] amounted to 0.083 µg/mL (≈ 0.219 µM); in experiment [2], 2 ng/mL (≈ 0.00527 µM).

For `CCCc1noc(-c2ccc(OCCC3CCN(c4ccc(C)nn4)CC3)cc2)n1` [compound 13], the IC50 in experiment [1] was 0.154 µg/mL (≈ 0.378 µM); in experiment [2], 6.8 ng/mL (≈ 0.0167 µM).

Consider `Cc1ccc(N2CCC(CCOc3ccc(-c4nc(C)no4)cc3)CC2)nn1` [compound 9], for which the IC50 in experiment [1] came out at 0.018 µg/mL (≈ 0.0474 µM); in experiment [2] it was 4 ng/mL (≈ 0.0105 µM).

For `CCc1nc(-c2ccc(OCCC3CCN(c4ccc(C)nn4)C3)cc2)no1` (stereo not shown) [compound 46], the figures for the IC50 in experiment [1] and in experiment [2] were 0.04 µg/mL (≈ 0.105 µM) and 5 ng/mL (≈ 0.0132 µM), respectively.

As to `CCc1noc(-c2ccc(OCCN3CCN(c4ccc(Cl)nn4)CC3)cc2)n1` [compound 38], the results for the IC50 in experiment [1] and in experiment [2] were 0.072 µg/mL (≈ 0.174 µM) and 2.4 ng/mL (≈ 0.00578 µM), respectively.

For the compound `CCc1noc(-c2ccc(OCCC3CCN(c4ccc(C)nn4)C3)cc2)n1` (stereo not shown) [compound 45], the IC50 in experiment [1] amounted to 0.065 µg/mL (≈ 0.171 µM); in experiment [2], 6 ng/mL (≈ 0.0158 µM).

For `CCc1nc(-c2ccc(OCCC3CCN(c4ccc(C)nn4)CC3)cc2)no1` [compound 6, 3-[4-[2-[4-(5-ethyl-1,2,4-oxadiazol-3-yl)phenoxy]ethyl]-1-piperidinyl]-6-methylpyridazine], the IC50 in experiment [1] was 0.047 µg/mL (≈ 0.119 µM); in experiment [2], 1.3 ng/mL (≈ 0.0033 µM).

As for `CCCc1nc(-c2ccc(OCCC3CCN(c4ccc(C)nn4)CC3)cc2)no1` [compound 27], the IC50 in experiment [1] was 0.122 µg/mL (≈ 0.299 µM); in experiment [2], 6 ng/mL (≈ 0.0147 µM).

`CCCCc1noc(-c2ccc(OCCC3CCN(c4ccc(C)nn4)CC3)cc2)n1` [compound 11]: the IC50 was found to be 0.175 µg/mL (≈ 0.415 µM) in experiment [1] and 6 ng/mL (≈ 0.0142 µM) in experiment [2].

`CCc1noc(-c2ccc(OCCC3CCN(c4ccc(Cl)nn4)C3)cc2)n1` (stereo not shown) [compound 44]: the IC50 in experiment [1] worked out at 0.166 µg/mL (≈ 0.415 µM); in experiment [2] it was 14 ng/mL (≈ 0.035 µM).

With `CCc1nnc(-c2ccc(OCCC3CCN(c4ccc(C)nn4)CC3)cc2)o1` [compound 1], the IC50 in experiment [1] was found to be 0.044 µg/mL (≈ 0.112 µM); in experiment [2] it was 6 ng/mL (≈ 0.0152 µM).

For the compound `CCc1noc(-c2ccc(OCCC3CCN(c4ccc(C)nn4)CC3)cc2)n1` [compound 5, 3-[4-[2-[4-(3-ethyl-1,2,4-oxadiazol-5-yl)phenoxy]ethyl]-1-piperidinyl]-6-methylpyridazine], the IC50 in experiment [1] is 0.098 µg/mL (≈ 0.249 µM); in experiment [2] it was 2.9 ng/mL (≈ 0.00737 µM).

Consider `CCc1nc(-c2ccc(OCCC3CCN(c4ccc(C)nn4)CC3)cc2)co1` [compound 21, 3-[4-[2-[4-(2-ethyl-4-oxazolyl)phenoxy]ethyl]-1-piperidinyl]-6-methylpyridazine], for which the results for the IC50 in experiment [1] and in experiment [2] were 0.02 µg/mL (≈ 0.051 µM) and below 0.5 ng/mL, respectively.

In the case of `CCc1csc(-c2ccc(OCCC3CCN(c4ccc(C)nn4)CC3)cc2)n1` [compound 22, 3-[4-[2-[4-(4-ethyl-2-thiazolyl)phenoxy]ethyl]-1-piperidinyl]-6-methylpyridazine], the IC50 worked out at 0.203 µg/mL (≈ 0.497 µM) in experiment [1] and 1 ng/mL (≈ 0.00245 µM) in experiment [2].

On to `Cc1ccc(N2CCC(CCOc3ccc(-c4noc(C)n4)cc3)CC2)nn1` [compound 25], for which the IC50 in experiment [1] came to 0.105 µg/mL (≈ 0.277 µM); in experiment [2], 8 ng/mL (≈ 0.0211 µM).

As to `CCc1nc(-c2ccc(OCCC3CCN(c4ccc(C)nn4)CC3)cc2)cs1` [compound 26], the figures for the IC50 in experiment [1] and in experiment [2] were above 0.125 µg/mL and 5 ng/mL (≈ 0.0122 µM), respectively.
